From US9376665B2, “Method for producing intestinal cells” (National University Corporation Kumamoto University, priority 2010, dated 2016)

Tests used:
[1] = test system: mouse ES cells; assay: Intestinal differentiation of mouse ES cells on M15 cells; marker expression by PCR and immunohistochemistry; format: cell-based; settings: quantitative PCR, BIO or DAPT added alone after definitive endoderm induction, Day 20 (d20)
Description: In this example, a cell line R1 was used as mouse ES cells. The cell line R1 was maintained on mouse embryonic fibroblast (MEF) feeders in 2000 mg/L-glucose-containing DMEM supplemented with Leukemia Inhibitory Factor (LIF), 10% fetal bovine serum (FBS), 100 μM of non-essential amino acids (NEAA), 2 mM of L-Gln, 50 units/mL of penicillin and 50 μg/mL of streptomycin (PS), and 100 μM β-mercaptoethanol.
(§1) The ES cells were culture on M15 cells added with 20 ng/mL of activin and 50 ng/mL of bFGF in DMEM medium containing 10% fetal bovine sera and […] of glucose for 5 days, and were analyzed using flow cytometry for definitive endoderm. For intestinal differentiation, the ES cells were further cultured on M15 or MEF cells, in the presence of BIO and DAPT, or without BIO and DAPT but with FGFs, in media with 10% KSR at a glucose concentration of 2000 mg/mL.
RNA was extracted from the ES cells using TRI Reagent (Sigma) or RNeasy micro-kit (Qiagen), and then, was treated with DNase (Sigma). Three micrograms of RNA were reverse-transcribed using a MMLV reverse transcriptase (Toyobo) and oligo dT primers (Toyobo). […]

[2] = test system: definitive endoderm cells; assay: Re-culture of sorted ES cell-derived definitive endoderm cells on feeder cells with BIO and DAPT; marker expression; format: cell-based, mouse
Description: as §1
The cells were dissociated with Cell Dissociation Buffer (Invitrogen), adjusted to 1×10^6 cells/50 μL, and stained with appropriate antibodies. A biotin- or Alexa 488-conjugated anti-E-cadherin monoclonal antibody ECCD2, and a phycoerythrin (PE)-conjugated anti-Cxcr4 mAb 2B11 (BD Pharmingen) were used as the antibodies. The stained cells were purified with FACS Aria (BD Pharmingen). Data were recorded using the BD FACSDiva Software program (BD Pharmingen), and were analyzed using the Flowjo program (Tree Star).
(§2) RNA was extracted from the ES cells using TRI Reagent (Sigma) or RNeasy micro-kit (Qiagen), and then, was treated with DNase (Sigma). Three micrograms of RNA were reverse-transcribed using a MMLV reverse transcriptase (Toyobo) and oligo dT primers (Toyobo). The PCR conditions for each cycle include initial denaturation at 96° C. for one minute, and the second and subsequent cycles of denaturation at 96° C. for 30 seconds, annealing at 60° C. for 2 seconds and extension at 72° C. for 20 seconds, and the final cycle of extension at 72° C. for 7 minutes. RT-PCR products were separated by 5% non-denaturing polyacrylamide gel electrophoresis, stained with SYBR Green I (Molecular Probes), and visualized using Gel Logic 200 Imaging System (Kodak).

[3] = test system: ES cells; assay: Effect of signalling inhibitors on intestinal differentiation by BIO and DAPT (Cdx2 RT-PCR and immunohistochemistry); format: cell-based, mouse; settings: inhibitor added with BIO and DAPT on MEF cells; RT-PCR and anti-Cdx2 immunohistochemistry, day 12
Description: Definitive endoderms were sorted from ES cells which had been cultured on M15 cells with activin and bFGF for 4 days, and the sorted cells were re-plated on MEF cells.
10 μg/mL of human bFGF (Peprotech), U0126 (Sigma), LY294002 (Calbiochem), and SU5402 (Calbiochem), respectively;

[4] = test system: mouse ES cells; assay: Test Example 1: addition of various inhibitors, Cdx2 expression by real-time PCR; format: cell-based; settings: inhibitor plus BIO (5 μM) and DAPT (10 μM) on MEF cells for 8 days (12th day of cultivation), Noggin 500 ng/mL, Dorsomorphin 200 nM, KAAD-Cyclopamine 250 nM
Description: In order to clarify what mechanism induces the intestinal differentiation in a case where mouse ES cells are used as a starting material, inhibitors against various signal transduction systems were added besides BIO and DAPT, and conditions in which expression of an intestinal marker Cdx2 decreases were evaluated.
As an inhibitor, 500 ng/mL of Noggin (R&D systems) or 200 nM of Dorsomorphin (SIGMA-ALDRICH), which is a BMP-signaling inhibitor; 1 μM of LE540 (Wako), which is a retinoic-acid-signaling inhibitor; 250 nM of KAAD-Cyclopamine (Calbiochem), which is a hedgehog-signaling inhibitor; or 10 μM of AMD3100 (SIGMA-ALDRICH), which is a Cxcr4 inhibitor, was added thereto. […] After that, the above-sorted definitive endoderm cells were cultured in the presence of BIO (5 μM) and DAPT (10 μM) as well as the above-mentioned inhibitor for 8 days (until the 12th day of cultivation) in accordance with the method described in Example 1, RNAs were extracted from the cells by the method described in Example 1, and expression of the Cdx2 gene, namely an intestinal marker, was analyzed by real-time PCR. The real-time PCR was carried out by use of the primer pairs used in Example 1 (see Table 1), Thunderbird SYBR qPCR mix (Toyobo), and 7500 Fast Real-Time PCR system (ABI Company).

[5] = test system: mouse ES cells; assay: Test Example 2: addition of various activators, proportion of Cdx2-positive cells by flow cytometry, feeder-free; format: cell-based; settings: for efficiency of differentiation, BMP4 or SAG added besides FGF2: 15th day of cultivation, with BIO and DAPT
Description: Therefore, next, an experiment in which the FGF signaling, the BMP signaling and the Hh signaling were activated was carried out. In view of micro-array data showing that MEF cells express FGF2 and BMP4, 50 ng/mL of FGF2 (PEPROTECH) and 25 ng/mL of BMP4 (R&D Systems) were used to activate the FGF signaling and the BMP signaling. Furthermore, as to activation of the Hh signaling, 300 nM of SAG (MERCK) (smoothend agonist; smo) was used.
For the experiment of inducing the differentiation, the induction of differentiation was carried out in a feeder-free system as described below. First, mouse ES cells were plated on a gelatin-coated dish at 6,900 cells/cm^2. The ES cells were cultured for 7 days in DMEM medium (Dulbecco's Modified Eagle Medium) (Invitrogen, Glasgow, UK) containing 4,500 mg/L of glucose, supplemented with NEAA, L-Gln, PS, β-ME, 10 μg/mL of Insulin (Sigma-Aldrich), […] of Transferin (Sigma-Aldrich), 6.7 pg/mL of Selenium (Sigma-Aldrich), 0.25% AlbuMax (Invitrogen), and 10 ng/mL of recombinant human activin A (R&D Systems, Minneapolis, Minn.), and then, the culture medium was replaced with 10% KSR containing 2,000 mg/mL of glucose, BIO (5 μM) and DAPT (10 μM) and further supplemented with the activator or growth factor. After that, cell culturing was further continued, the cells were separated on the 10th day and the 15th day of cultivation as described in Example 1, and then, the proportion of Cdx2-positive cells was evaluated by use of flow cytometry. The flow cytometry (FACS) analysis was carried out using BD Cytofix/Cytoperm™ Kit (BD Biosciences) in accordance with a manual provided by the manufacturer.

[6] = test system: definitive endoderm cells; assay: Effects of FGFs on intestinal differentiation of definitive endoderm cells (RT-PCR, Cdx2 immunohistochemistry); format: cell-based, mouse; settings: FGFs added from Day 4 of the differentiation, on MEF cells; immunohistochemistry on day 12
Description: as §1
256 ng/mL of FGF2 (human bFGF) (Peprotech); and
50 ng/mL of FGF4 (Peprotech), FGF5 (Sigma), FGF7 (R&D Systems), FGF8 (Cosmo Bio), FGF9 (Peprotech), FGF10 (R&D Systems) and FGF18 (Sigma), respectively.
as §2

[7] = high concentration of DAPT in the presence of BIO (5 μM)
[8] = high BIO concentration with DAPT (10 μM)

`C[C@H](NC(=O)Cc1cc(F)cc(F)c1)C(=O)N[C@H](C(=O)OC(C)(C)C)c1ccccc1` [DAPT, N-[(3,5-difluorophenyl)acetyl]-L-Ala-2-phenyl-L-Gly-tert-butyl-OH] was tested, and the “expression of Intestinal fatty acid binding protein (Ifabp)” value [1] was “induced expression”, the “anterior marker Pax8” value [2, 7] was “turned off” and the “posterior marker Hoxc8” value [2, 7] was “inducing”.

With `Cc1c[nH]c(/C=C2\C(=O)Nc3ccccc32)c1CCC(=O)O` [SU5402] the “intestinal differentiation mediated by BIO and DAPT (Cdx2 expression)” value [3] was “partially inhibited”.

In the case of `O=C1Nc2cc(Br)ccc2/C1=C1/Nc2ccccc2/C1=N\O` [BIO, (2′Z,3′E)-6-bromoindirubin-3′-oxime], the “expression of Intestinal fatty acid binding protein (Ifabp)” value [1] is reported as “induced expression”, the Hoxc8 [2, 8] is reported as “turning on” and the Pax8 [2, 8] is reported as “turned off”.

With `N#CC(=C(/N)Sc1ccccc1N)/C(C#N)=C(\N)Sc1ccccc1N` [U0126] the “intestinal differentiation mediated by BIO and DAPT (Cdx2 expression)” value [3] was “not inhibited”.

For KAAD-Cyclopamine [reference compound], the “expression of Cdx2” value [4] was “lowered”.

`CNC1CCC(N(Cc2cccc(-c3ccncc3)c2)C(=O)c2sc3ccccc3c2Cl)CC1` (stereo not drawn) [SAG, N-Methyl-N′-(3-pyridinylbenzyl)-N′-(3-chlorobenzo[b]thiophene-2-carbonyl)-1,4-diaminocyclohexane, reference compound] was tested, and the “number of Cdx2-positive cells versus control (only BIO and DAPT)” value ([5]; 10th day of cultivation, FGF2 50 ng/mL or SAG 300 nM added besides BIO and DAPT) was “decrease” and the “efficiency of differentiation, BMP4 or SAG added besides FGF2” value [5] was “yet more efficiently differentiate”.

B1: BMP4: BMP4 (R&D Systems), activates the BMP signaling (protein, UniProt P12644 293-408, looked up)
Bone morphogenetic protein 4: SPKHHSQRARKKNKNCRRHSLYVDFSDVGWNDWIVAPPGYQAFYCHGDCPFPLADHLNSTNHAIVQTLVNSVNSSIPKACCVPTELSAISMLYLDEYDKVVLKNYQEMVVEGCGCR
B1 was tested, and the “number of Cdx2-positive cells, BMP4 added in addition to SAG” value ([5]; 10th day of cultivation, BMP4 25 ng/mL, SAG 300 nM, BIO and DAPT) was “improved” and the “efficiency of differentiation, BMP4 or SAG added besides FGF2” value [5] was “yet more efficiently differentiate”.

B2: FGF4: FGF4 (Peprotech), growth factor (protein, UniProt P08620 31-206, looked up)
Fibroblast growth factor 4: APTAPNGTLEAELERRWESLVALSLARLPVAAQPKEAAVQSGAGDYLLGIKRLRRLYCNVGIGFHLQALPDGRIGGAHADTRDSLLELSPVERGVVSIFGVASRFFVAMSSKGKLYGSPFFTDECTFKEILLPNNYNAYESYKYPGMFIALSKNGKTKKGNRVSPTMKVTHFLPRL
In the case of B2, the “induction of Cdx2-expressing intestinal cells” value (shortened to “induction”) [6] is reported as “more potent in inducing Cdx2-expressing cells than FGF2 (bFGF)”.

B3: FGF7: FGF7 (R&D Systems), growth factor (protein, UniProt P21781 32-194, looked up)
Fibroblast growth factor 7: CNDMTPEQMATNVNCSSPERHTRSYDYMEGGDIRVRRLFCRTQWYLRIDKRGKVKGTQEMKNNYNIMEIRTVAVGIVAIKGVESEFYLAMNKEGKLYAKKECNEDCNFKELILENHYNTYASAKWTHNGGEMFVALNQKGIPVRGKKTKKEQKTAHFLPMAIT
B3 was tested, and the “induction” value [6] was “induced intestinal differentiation of ES cells, but the levels thereof were lower”.

B4: Noggin: Noggin (R&D systems), a BMP-signaling inhibitor (protein, UniProt Q13253 28-232, looked up)
Noggin: QHYLHIRPAPSDNLPLVDLIEHPDPIFDPKEKDLNETLLRSLLGGHYDPGFMATSPPEDRPGGGGGAAGGAEDLAELDQLLRQRPSGAMPSEIKGLEFSEGLAQGKKQRLSKKLRRKLQMWLWSQTFCPVLYAWNDLGSRFWPRYVKVGSCFSKRSCSVPEGMVCKPSKSVHLTVLRWRCQRRGGQRCGWIPIQYPIISECKCSC
B4 was tested, and the “expression of Cdx2” value [4] was “lowered”.

B5: FGF10: FGF10 (R&D Systems), growth factor (protein, UniProt O15520 38-208, looked up)
Fibroblast growth factor 10: QALGQDMVSPEATNSSSSSFSSPSSAGRHVRSYNHLQGDVRWRKLFSFTKYFLKIEKNGKVSGTKKENCPYSILEITSVEIGVVAVKAINSNYYLAMNKKGKLYGSKEFNNDCKLKERIEENGYNTYASFNWQHNGRQMYVALNGKGAPRRGQKTRRKNTSAHFLPMVVHS
For B5, the “induction” value [6] was “induced intestinal differentiation of ES cells, but the levels thereof were lower”.

B6: FGF18: FGF18 (Sigma), growth factor (protein, UniProt O76093 28-207, looked up)
Fibroblast growth factor 18: EENVDFRIHVENQTRARDDVSRKQLRLYQLYSRTSGKHIQVLGRRISARGEDGDKYAQLLVETDTFGSQVRIKGKETEFYLCMNRKGKLVGKPDGTSKECVFIEKVLENNYTALMSAKYSGWYVGFTKKGRPRKGPKTRENQQDVHFMKRYPKGQPELQKPFKYTTVTKRSRRIRPTHPA
With B6 the “induction” value [6] was “induced intestinal differentiation of ES cells, but the levels thereof were lower”.
